# Experimental data as given in patent publication US10222368B2 (priority 2012, dated 2019).
# How the values were obtained:
# TLR4-FLNA complexes = target: T1, TLR4-FLNA complexes (Mus musculus, UniProt Q8BTM8); test: AD transgenic mouse oral treatment, lymphocyte anti-FLNA immunoprecipitation / Western blot; format: in vivo; details: 30 mg/kg C0105 orally for 2 months; AD transgenic mice from age 4 and 8 months
# T1 construct: measuring α7nAChR and TLR4 contents in anti-FLNA immunoprecipitate by Western blotting; endogenous in cells; host or cells: trunk-blood lymphocytes of E129 and tau/APP695sw/PS1 transgenic mice
# Description: (§1) FIG. 19, in five panels as FIG. 19A and FIG. 19B, FIG. 19C, FIG. 19D and FIG. 19E, illustrate the effects of oral administration of 30 mg/kg of Compound C0105 for a period of two months to E129 mice and AD transgenic (tau/APP695sw(-9E0/PS1) mice beginning at the ages of 4 and 8 months. Mice were sacrificed, and their brains extracted/dissected to confirm pathologies. Trunk blood was collected and lymphocyte lysate preparations were analyzed for levels of α7nAChR and FLNA as well as TLR4 and FLNA by measuring α7nAChR and TLR4 contents in anti-FLNA immunoprecipitates by Western blotting and visualization with FITC. Data are expressed as the ratios of optical intensities of α7nAChR to FLNA (FIGS. 19B and 19C) and TLR4 to FLNA (FIGS. 19D and 19E). n=5. […]
# (§2) To assess the C0105's AD treatment efficacy, E129 mice and AD transgenic (tau/APP695sw(-9E)/PS1) mice at age of 4-months (minimal plaque pathologies) and 8-months (established plaque pathologies) were treated orally with 30 mg/kg of C0105 for 2 months. […] The protein bands were detected using a chemiluminescent method, visualized by exposure to x-ray film and quantified by densitometric scan.
# (§3) The data were expressed as the ratios of optical intensities of α7nAChR to FLNA and TLR4 to FLNA. […]
# α7nAChR-FLNA complexes = target: T2, α7nAChR-FLNA complexes (Mus musculus, UniProt Q8BTM8); test: as above; format: in vivo; details: 30 mg/kg C0105 orally for 2 months; AD transgenic mice from age 4 and 8 months
# T2 construct: measuring α7nAChR and TLR4 contents in anti-FLNA immunoprecipitate by Western blotting; endogenous in cells; host or cells: trunk-blood lymphocytes of E129 and tau/APP695sw/PS1 transgenic mice
# Description: as §1, §2, §3
# TLR4-FLNA complex = target: T3, TLR4-FLNA complex (Homo sapiens, UniProt P21333); test: 96-well FITC-solid phase method in lymphocytes; format: cell-based; details: 1 nM C0105, 30 min; AD lymphocytes or Aβ42-treated control lymphocytes
# T3 construct: To determine the levels of FLNA-α7nAChR, FLNA-TLR4 and α7nAChR-Aβ42 complexes in the lymphocytes; endogenous in cells; host or cells: lymphocytes from venous blood of AD patients and control subjects (ex vivo)
# Description: (§4) FIG. 2 illustrates the utility of a 96-well FITC-solid phase assay method to assess, in lymphocytes from AD patients and control subjects, levels of 1) the FLNA-α7nAChR association 2) the FLNA-TLR4 association and 3) α7nAChR-Aβ42 complexes. The top two panels show α7nAChR and TLR4 levels detected using respective FITC-anti-α7nAChR or FITC-anti-TLR4 antibodies after capturing FLNA coupled to α7nAChR and TLR4, respectively, with an anti-FLNA antibody coated on the microtiter solid phase plate.
# (§5) To prepare lymphocytes, 7 ml of venous blood was collected into an EDTA-containing collecting tube or S-monovette (Sarstedt). Collected blood (6 ml) was layered onto 6 ml of Histopaque®-1077 (Sigma) at 25° C., and the anticoagulated blood was centrifuged at 400×g for 30 minutes (25° C.) to yield plasma (top layer) and lymphocytes (opaque interface). The lymphocytes were washed twice by mixing with 6 ml of oxygenated K-R followed by centrifugation at 250×g for 10 minutes and resuspension. […]
# (§6) After two 1-minute washes with 50 mM Tris HCl (pH 7.4), each well was incubated in 0.5 μg/well FITC-conjugated anti-mouse IgG (human and mouse absorbed) for 1 hour at 25° C. Plates were washed twice with 200 μl ice-cold Tris HCl, pH 7.4 and the residual FITC-Aβ42 signals were determined by multimode plate reader, DTX880 (Beckman).
# α7nAChR-FLNA complex = target: T4, α7nAChR-FLNA complex (Homo sapiens, UniProt P21333); test: 96-well FITC-solid phase method in lymphocytes; format: cell-based; details: 1 nM C0105, 30 min; AD lymphocytes or Aβ42-treated control lymphocytes
# T4 construct: To determine the levels of FLNA-α7nAChR, FLNA-TLR4 and α7nAChR-Aβ42 complexes in the lymphocytes; endogenous in cells; host or cells: lymphocytes from venous blood of AD patients and control subjects (ex vivo)
# Description: as §4, §5, §6
# [1] = tested on: cytokines IL-6, TNFα and IL-1β; test: ICV Aβ42 infusion mouse model, cytokine fluorescence ELISA; format: in vivo; details: ICV Aβ42-infused mice; 10 mg/kg C0105 i.p.
# Description: FIG. 6 illustrates that Compound C0105 treatment of mice nearly abolishes Aβ42-induced cytokine production. […] Compound C0105 almost abolished the production of these 3 cytokines. n=7 or n=8.
# T3 sequence (P21333 2-2647 limits assumed, one chain of several): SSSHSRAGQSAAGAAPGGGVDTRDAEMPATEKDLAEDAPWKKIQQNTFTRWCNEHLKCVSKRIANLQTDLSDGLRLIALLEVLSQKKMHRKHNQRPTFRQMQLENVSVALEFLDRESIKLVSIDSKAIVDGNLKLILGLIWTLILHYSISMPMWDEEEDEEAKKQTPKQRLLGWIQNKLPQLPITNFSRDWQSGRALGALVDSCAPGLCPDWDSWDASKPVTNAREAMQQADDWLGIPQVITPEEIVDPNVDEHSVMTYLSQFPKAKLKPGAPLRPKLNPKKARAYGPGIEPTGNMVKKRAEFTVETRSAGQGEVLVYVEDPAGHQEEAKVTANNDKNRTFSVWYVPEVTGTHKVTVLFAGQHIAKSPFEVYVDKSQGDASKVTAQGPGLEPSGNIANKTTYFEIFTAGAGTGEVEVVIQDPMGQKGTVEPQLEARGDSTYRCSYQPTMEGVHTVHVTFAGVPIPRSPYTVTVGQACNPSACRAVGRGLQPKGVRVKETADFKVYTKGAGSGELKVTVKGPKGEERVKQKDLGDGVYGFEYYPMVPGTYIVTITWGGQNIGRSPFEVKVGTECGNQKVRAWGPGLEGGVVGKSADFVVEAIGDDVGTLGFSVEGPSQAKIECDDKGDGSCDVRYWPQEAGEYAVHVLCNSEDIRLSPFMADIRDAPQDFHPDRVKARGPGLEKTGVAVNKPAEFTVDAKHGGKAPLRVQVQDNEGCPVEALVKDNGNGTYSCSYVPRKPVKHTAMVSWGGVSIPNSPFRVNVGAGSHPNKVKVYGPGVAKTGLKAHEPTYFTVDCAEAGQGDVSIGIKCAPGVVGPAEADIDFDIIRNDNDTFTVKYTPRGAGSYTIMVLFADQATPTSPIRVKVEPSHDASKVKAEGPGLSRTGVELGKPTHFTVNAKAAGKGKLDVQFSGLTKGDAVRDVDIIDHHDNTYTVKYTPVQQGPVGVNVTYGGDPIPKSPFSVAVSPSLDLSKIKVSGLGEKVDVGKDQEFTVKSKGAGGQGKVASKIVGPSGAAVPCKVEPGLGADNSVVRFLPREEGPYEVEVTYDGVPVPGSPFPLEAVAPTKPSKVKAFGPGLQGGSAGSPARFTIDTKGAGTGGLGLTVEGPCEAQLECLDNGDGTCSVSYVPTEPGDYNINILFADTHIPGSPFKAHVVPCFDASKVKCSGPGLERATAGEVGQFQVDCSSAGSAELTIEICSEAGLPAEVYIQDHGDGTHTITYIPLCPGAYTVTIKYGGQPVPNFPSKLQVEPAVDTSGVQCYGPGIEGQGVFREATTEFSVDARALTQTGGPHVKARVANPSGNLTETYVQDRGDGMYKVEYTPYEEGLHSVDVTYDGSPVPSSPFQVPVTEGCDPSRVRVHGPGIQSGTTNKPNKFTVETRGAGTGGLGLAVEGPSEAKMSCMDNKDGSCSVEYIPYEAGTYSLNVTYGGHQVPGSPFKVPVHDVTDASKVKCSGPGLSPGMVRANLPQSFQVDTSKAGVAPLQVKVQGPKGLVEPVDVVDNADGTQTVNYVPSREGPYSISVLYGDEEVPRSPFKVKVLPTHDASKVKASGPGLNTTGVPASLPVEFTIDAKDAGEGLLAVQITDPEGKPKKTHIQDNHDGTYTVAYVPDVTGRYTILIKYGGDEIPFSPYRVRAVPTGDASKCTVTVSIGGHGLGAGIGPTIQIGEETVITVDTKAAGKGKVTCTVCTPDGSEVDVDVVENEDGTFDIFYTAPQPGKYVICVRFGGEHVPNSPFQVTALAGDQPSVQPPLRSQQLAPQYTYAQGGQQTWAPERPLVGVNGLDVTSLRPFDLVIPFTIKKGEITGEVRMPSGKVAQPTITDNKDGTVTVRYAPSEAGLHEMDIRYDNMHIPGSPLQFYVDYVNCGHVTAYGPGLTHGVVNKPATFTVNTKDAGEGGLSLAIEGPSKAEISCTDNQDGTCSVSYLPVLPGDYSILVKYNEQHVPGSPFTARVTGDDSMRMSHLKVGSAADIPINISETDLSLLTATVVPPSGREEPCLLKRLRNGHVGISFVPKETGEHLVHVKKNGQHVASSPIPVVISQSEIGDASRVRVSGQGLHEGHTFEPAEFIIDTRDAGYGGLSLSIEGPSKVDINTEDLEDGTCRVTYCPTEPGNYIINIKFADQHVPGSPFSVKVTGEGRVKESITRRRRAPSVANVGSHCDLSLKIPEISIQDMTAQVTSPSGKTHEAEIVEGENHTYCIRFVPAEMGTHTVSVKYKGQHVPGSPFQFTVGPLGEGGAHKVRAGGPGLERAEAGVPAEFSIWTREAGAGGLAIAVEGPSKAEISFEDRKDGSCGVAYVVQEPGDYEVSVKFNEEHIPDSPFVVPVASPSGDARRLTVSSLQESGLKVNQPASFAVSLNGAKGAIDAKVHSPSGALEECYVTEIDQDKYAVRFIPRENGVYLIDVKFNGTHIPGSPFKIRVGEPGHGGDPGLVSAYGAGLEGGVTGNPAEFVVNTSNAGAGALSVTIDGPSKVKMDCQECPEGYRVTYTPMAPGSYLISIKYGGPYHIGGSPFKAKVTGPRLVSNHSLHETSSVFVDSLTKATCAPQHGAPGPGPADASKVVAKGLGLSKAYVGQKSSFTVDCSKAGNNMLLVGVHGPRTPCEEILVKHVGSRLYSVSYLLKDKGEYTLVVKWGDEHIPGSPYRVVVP
# T4 sequence (P21333 2-2647 limits assumed, one chain of several): as above
smiles,measurement,setting,value
CN1CCC2(CC1)NCC(=O)N2Cc1ccccc1 [Compound C0105],Effect on elevated TLR4-FLNA complexes in lymphocytes (in words),TLR4-FLNA complexes,robustly normalized
same,Effect on elevated α7nAChR-FLNA complexes in lymphocytes (in words),α7nAChR-FLNA complexes,robustly normalized
same,Effect on FLNA-TLR4 association (in words),TLR4-FLNA complex,reduce all three associations
same,Effect on FLNA-α7nAChR association (in words),α7nAChR-FLNA complex,reduce all three associations
same,Effect on Aβ42-induced IL-6 production (in words),[1],completely abolished
same,Suppression of IL-1β level,[1],80%
same,Suppression of TNF-α level,[1],86%
